As usually defined, the inhibition is the relative decrease from the control value, in per cent. The term residual activity denotes what remains of the control signal, in per cent. A lower residual activity goes with little activity left.

For three compounds, inhibition and residual activity results are on record in ChEMBL document CHEMBL5696442, “Discovery of type II inhibitors of TGFβ-activated kinase 1 (TAK1) and mitogen-activated protein kinase kinase kinase kinase 2 (MAP4K2)” (J Med Chem, 2015).

The test system of assay [1] is Epidermal growth factor receptor (Homo sapiens), P00533 [G719S]. Description: Inhibition of EGFR G719S mutant (unknown origin) at 1 uM by Ambit Kinomescan binding assay relative to control.
The target in assay [2] is T1, Receptor-interacting serine/threonine-protein kinase 4 (Homo sapiens) (UniProt P57078).
T1 sequence (whole entry): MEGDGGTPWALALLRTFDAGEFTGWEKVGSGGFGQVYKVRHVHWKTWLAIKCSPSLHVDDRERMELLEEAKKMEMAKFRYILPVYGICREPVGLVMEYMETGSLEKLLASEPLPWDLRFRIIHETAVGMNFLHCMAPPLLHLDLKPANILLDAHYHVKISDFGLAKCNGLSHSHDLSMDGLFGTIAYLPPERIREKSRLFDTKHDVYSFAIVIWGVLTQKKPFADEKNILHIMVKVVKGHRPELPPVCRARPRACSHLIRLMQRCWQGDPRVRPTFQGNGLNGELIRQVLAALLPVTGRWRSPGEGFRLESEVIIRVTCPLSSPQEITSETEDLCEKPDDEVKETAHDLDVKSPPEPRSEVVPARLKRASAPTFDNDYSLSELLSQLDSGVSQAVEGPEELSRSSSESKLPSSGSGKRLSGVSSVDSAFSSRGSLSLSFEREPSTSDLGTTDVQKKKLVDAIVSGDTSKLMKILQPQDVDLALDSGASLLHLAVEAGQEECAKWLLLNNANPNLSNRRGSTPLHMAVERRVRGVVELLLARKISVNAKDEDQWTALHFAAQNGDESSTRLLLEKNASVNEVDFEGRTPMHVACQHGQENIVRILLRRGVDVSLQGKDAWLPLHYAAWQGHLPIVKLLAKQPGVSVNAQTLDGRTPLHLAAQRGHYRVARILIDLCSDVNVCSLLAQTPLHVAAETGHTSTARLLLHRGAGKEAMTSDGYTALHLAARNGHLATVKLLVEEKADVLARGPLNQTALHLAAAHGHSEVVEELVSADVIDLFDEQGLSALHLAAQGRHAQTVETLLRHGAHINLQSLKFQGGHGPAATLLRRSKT
As to the kind of experiment: Inhibition of ANKRD3 Lys1 labeling site in human A-375 cells at 0.5 uM by KiNativ Profiling analysis relative to control. It counts as cell-based.

For assay [3], the target named is Maternal embryonic leucine zipper kinase (Homo sapiens) (UniProt Q14680). Description: Inhibition of MELK (unknown origin) at 1 uM by Ambit Kinomescan binding assay relative to control; values are per cent of control.
The target in assay [4] is Cytoplasmic tyrosine-protein kinase BMX (Homo sapiens) (UniProt P51813). As to the kind of experiment: Inhibition of BMX (unknown origin) at 10 uM by Ambit Kinomescan binding assay relative to control.
Assay [5] addresses Protein kinase C delta type (Homo sapiens) (UniProt Q05655). As to the kind of experiment: Inhibition of PRKCD (unknown origin) at 10 uM by Ambit Kinomescan binding assay.
The target in assay [6] is Dual specificity mitogen-activated protein kinase kinase 1 (Homo sapiens) (UniProt Q02750). As to the kind of experiment: Inhibition of MAP2K1 Lys1 labeling site in human A-375 cells at 5 uM by KiNativ Profiling analysis relative to control. The assay is classed as cell-based.
The target of assay [7] is T2, PAN2-PAN3 deadenylation complex subunit PAN3 (Homo sapiens) (UniProt Q58A45).
T2 sequence (whole entry): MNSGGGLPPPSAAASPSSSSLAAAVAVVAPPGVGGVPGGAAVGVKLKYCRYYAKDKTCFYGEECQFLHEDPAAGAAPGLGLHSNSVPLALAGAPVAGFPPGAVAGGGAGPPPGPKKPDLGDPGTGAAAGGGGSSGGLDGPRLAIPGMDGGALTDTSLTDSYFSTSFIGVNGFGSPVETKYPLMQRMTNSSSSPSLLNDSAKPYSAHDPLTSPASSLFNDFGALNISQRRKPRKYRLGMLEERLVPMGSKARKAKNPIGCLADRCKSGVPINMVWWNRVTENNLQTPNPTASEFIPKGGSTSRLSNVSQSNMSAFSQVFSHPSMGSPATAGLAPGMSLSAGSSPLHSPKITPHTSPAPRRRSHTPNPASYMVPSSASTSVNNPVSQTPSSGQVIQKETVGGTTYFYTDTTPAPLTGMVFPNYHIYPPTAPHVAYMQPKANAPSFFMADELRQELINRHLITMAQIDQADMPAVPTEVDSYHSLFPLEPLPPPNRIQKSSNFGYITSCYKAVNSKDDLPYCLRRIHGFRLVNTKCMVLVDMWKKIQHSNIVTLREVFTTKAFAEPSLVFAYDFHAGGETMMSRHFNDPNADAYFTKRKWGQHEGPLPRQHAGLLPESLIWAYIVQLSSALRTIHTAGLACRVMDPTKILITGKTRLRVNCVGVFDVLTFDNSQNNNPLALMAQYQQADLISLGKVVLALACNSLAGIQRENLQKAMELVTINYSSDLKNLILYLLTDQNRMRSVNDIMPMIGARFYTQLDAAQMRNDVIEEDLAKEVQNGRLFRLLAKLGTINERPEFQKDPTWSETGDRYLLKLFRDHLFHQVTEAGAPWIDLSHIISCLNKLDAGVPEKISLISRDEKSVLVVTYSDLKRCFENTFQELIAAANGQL
Description: Inhibition of PAN3 ATP labeling site in human A-375 cells at 0.05 uM by KiNativ Profiling analysis relative to control. The assay is classed as cell-based.

The target in assay [8] is Myosin light chain kinase, smooth muscle (Homo sapiens) (UniProt Q15746). Description: Inhibition of smMLCK K1 labeling site in human Huh-7 cells at 10 uM by KiNativ Profiling analysis relative to control. The assay is classed as cell-based.
Assay [9] deals with eIF-2-alpha kinase GCN2 (Homo sapiens) (UniProt Q9P2K8). As to the kind of experiment: Inhibition of GCN2 K2 labeling site in human Huh-7 cells at 1 uM by KiNativ Profiling analysis relative to control. It counts as cell-based.
Assay [10] concerns the target Ribosomal protein S6 kinase beta-2 (Homo sapiens) (UniProt Q9UBS0). As to the kind of experiment: Inhibition of p70S6Kb Lys2 labeling site in human Huh-7 cell lysate at 1 uM by KiNativ Profiling analysis relative to control. It counts as subcellular.
For assay [11], the target named is T3, Phosphatidylinositol 5-phosphate 4-kinase type-2 gamma (Homo sapiens) (UniProt Q8TBX8).
T3 sequence (whole entry): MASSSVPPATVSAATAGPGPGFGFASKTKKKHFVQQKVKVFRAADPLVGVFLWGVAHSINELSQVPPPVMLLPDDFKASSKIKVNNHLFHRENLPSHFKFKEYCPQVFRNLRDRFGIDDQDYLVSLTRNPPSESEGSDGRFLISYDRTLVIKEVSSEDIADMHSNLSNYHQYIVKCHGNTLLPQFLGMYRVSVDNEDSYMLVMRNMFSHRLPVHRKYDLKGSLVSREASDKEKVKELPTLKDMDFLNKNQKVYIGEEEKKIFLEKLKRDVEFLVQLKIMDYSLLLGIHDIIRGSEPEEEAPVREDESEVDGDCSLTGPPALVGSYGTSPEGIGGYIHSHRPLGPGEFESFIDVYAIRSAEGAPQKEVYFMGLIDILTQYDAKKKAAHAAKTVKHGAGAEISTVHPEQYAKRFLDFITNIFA
As to the kind of experiment: Inhibition of PIP4K2C ATP labeling site harbouring TLVIKEVSSEDIADMHSNLSNYHQYIVK in human Huh-7 cell lysate at 1 uM by KiNativ Profiling analysis relative to control. The assay is classed as subcellular.

Structures are written as SMILES. Calls of active or inactive are those of the source. No cut-off for these calls is given here.

Sequence of Myosin light chain kinase, smooth muscle (Homo sapiens) (Q15746 whole entry): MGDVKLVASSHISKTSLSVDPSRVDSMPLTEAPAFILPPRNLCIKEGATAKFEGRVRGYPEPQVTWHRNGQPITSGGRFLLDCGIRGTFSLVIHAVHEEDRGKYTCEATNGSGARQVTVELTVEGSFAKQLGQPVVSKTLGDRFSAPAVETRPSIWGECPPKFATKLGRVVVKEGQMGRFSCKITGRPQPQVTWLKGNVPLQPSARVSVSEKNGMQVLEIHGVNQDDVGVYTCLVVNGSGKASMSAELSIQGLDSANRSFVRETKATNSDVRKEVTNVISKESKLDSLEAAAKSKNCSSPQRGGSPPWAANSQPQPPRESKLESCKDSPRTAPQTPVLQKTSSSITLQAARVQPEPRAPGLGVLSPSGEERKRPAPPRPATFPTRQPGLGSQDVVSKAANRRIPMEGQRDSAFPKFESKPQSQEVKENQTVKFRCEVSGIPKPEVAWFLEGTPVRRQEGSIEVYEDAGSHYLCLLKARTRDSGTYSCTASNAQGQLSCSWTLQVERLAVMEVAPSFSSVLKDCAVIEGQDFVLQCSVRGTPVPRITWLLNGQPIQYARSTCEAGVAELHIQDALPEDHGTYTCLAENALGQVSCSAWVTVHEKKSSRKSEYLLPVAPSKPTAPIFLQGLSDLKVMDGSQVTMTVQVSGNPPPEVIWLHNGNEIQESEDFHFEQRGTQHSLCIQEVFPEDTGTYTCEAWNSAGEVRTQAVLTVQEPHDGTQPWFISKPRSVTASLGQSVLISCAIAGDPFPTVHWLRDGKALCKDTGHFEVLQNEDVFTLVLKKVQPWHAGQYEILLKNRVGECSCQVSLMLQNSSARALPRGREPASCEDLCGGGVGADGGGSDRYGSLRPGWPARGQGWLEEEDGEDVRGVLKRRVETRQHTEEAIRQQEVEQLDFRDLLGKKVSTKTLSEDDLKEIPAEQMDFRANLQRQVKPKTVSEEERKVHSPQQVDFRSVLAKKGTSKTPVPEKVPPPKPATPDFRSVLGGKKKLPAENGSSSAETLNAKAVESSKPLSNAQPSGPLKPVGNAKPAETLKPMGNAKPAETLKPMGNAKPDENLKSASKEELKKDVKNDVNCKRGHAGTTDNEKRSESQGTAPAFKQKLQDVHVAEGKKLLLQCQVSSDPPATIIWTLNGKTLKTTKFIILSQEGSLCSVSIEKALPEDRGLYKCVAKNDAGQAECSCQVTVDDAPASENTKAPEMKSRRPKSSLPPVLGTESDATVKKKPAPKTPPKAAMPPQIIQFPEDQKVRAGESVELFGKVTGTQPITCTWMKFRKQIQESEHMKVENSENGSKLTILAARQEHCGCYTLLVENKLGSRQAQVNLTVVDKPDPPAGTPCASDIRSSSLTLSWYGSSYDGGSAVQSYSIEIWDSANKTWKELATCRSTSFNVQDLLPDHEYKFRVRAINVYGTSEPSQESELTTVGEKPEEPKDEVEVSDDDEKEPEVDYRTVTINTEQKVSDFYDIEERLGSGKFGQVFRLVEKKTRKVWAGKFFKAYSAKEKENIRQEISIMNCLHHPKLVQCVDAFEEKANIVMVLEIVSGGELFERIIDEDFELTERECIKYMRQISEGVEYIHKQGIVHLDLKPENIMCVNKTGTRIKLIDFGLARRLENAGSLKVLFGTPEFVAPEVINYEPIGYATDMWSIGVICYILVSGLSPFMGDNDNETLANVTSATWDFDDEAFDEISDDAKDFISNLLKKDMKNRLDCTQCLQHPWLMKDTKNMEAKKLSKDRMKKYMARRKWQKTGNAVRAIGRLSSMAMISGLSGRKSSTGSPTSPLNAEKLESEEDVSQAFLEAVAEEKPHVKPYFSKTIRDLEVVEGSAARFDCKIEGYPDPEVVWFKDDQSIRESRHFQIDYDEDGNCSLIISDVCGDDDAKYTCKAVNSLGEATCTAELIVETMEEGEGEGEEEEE
Sequence of Maternal embryonic leucine zipper kinase (Homo sapiens) (Q14680 whole entry, looked up): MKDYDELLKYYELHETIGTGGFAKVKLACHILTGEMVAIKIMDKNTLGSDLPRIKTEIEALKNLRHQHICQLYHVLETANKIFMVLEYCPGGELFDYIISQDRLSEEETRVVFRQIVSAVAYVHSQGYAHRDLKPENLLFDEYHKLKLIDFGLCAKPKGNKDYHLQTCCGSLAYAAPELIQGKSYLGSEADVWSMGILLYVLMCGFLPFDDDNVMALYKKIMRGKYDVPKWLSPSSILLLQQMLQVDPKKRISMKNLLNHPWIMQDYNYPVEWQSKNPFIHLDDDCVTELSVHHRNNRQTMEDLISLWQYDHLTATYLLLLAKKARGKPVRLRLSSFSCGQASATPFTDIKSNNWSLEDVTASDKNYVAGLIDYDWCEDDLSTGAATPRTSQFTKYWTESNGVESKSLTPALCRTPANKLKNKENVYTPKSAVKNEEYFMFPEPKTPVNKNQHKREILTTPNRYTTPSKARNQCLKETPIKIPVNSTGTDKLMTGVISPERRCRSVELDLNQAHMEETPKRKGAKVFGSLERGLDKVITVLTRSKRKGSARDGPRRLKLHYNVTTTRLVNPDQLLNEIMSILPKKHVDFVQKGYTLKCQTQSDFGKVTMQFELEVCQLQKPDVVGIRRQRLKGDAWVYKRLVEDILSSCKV
Sequence of Dual specificity mitogen-activated protein kinase kinase 1 (Homo sapiens) (Q02750 whole entry): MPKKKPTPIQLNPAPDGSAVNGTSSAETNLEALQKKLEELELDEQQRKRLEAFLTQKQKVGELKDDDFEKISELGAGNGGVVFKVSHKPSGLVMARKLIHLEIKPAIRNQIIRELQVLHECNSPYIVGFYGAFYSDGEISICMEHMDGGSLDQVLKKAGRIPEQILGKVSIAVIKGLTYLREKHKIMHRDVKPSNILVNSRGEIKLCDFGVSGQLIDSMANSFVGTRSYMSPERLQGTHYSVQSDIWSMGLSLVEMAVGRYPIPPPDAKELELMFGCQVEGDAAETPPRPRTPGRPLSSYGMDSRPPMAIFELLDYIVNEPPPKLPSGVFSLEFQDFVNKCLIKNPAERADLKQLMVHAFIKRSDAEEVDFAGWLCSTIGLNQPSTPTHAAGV
Sequence of Protein kinase C delta type (Homo sapiens) (Q05655 whole entry, looked up): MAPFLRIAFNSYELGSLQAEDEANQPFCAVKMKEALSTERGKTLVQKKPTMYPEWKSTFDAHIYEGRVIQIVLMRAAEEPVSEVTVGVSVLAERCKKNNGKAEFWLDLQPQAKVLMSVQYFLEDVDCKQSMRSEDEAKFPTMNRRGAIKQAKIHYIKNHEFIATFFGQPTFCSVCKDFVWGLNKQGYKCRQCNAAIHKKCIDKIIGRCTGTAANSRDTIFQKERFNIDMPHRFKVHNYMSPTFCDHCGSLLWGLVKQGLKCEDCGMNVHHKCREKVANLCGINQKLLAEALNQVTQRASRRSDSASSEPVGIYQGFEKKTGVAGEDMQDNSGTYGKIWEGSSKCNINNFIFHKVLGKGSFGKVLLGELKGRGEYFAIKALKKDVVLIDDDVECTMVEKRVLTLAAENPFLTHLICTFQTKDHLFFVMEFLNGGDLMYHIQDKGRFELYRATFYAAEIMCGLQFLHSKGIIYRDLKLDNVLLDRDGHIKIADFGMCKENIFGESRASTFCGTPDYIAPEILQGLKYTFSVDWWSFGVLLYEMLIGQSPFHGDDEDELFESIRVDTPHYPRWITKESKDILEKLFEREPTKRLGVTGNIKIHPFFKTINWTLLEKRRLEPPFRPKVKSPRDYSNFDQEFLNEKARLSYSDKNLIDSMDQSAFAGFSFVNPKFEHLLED
Sequence of Cytoplasmic tyrosine-protein kinase BMX (Homo sapiens) (P51813 whole entry): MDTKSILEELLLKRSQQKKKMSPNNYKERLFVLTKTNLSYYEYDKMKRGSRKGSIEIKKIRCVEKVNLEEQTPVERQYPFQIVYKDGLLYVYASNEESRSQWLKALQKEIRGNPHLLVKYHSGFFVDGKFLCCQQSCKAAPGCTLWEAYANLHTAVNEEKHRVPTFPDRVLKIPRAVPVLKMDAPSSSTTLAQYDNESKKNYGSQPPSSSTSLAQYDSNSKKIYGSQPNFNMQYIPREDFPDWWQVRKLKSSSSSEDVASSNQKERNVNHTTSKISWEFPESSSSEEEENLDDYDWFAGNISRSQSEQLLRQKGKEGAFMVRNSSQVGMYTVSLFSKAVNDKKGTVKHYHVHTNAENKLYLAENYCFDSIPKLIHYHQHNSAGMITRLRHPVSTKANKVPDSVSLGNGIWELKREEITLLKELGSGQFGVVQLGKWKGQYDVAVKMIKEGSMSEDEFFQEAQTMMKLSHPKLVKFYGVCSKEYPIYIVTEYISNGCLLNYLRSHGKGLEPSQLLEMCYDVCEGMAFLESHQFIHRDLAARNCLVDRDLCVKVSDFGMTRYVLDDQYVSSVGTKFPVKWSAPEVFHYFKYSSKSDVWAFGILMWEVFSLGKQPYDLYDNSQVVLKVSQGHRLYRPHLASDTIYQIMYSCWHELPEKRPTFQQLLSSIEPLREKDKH
Sequence of Ribosomal protein S6 kinase beta-2 (Homo sapiens) (Q9UBS0 whole entry): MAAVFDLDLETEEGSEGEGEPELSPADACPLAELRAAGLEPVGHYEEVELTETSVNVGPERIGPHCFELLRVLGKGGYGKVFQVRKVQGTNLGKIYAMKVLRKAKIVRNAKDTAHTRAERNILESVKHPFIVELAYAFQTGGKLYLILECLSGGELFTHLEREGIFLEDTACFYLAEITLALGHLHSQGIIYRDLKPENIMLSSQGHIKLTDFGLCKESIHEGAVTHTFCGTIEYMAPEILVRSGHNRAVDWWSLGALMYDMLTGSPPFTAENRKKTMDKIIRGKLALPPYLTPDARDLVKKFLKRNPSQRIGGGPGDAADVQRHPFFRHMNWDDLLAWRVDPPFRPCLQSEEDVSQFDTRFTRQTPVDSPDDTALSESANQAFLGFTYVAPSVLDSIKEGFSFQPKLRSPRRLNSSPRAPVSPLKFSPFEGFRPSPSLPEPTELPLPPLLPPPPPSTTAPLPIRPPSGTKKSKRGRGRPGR

Regarding `CCN1CCN(Cc2ccc(NC(=O)c3ccc(C)c(/C=C/c4cnc5[nH]ccc5c4OC)c3)cc2C(F)(F)F)CC1`, the values for the inhibition in assay [1] and in assay [2] were 0.9% and 23.7%, respectively. In addition, the residual activity in assay [3] came to 72%.

For the compound `CCN1CCN(Cc2ccc(NC(=O)c3ccc(C)c(Oc4ccnc5[nH]ccc45)c3)cc2C(F)(F)F)CC1`, the inhibition in assay [4] was 2.4%; in [6], 1.3%; in assay [7], 7%; in assay [8], -9%; in assay [9] it was 12%. In addition, the inhibition result in [5] is “inactive”.

Regarding `CNc1cc(Oc2cc(C(=O)Nc3cc(N4CCN(C)CC4)cc(C(F)(F)F)c3)ccc2C)ncn1`, the inhibition is -8.4% in assay [10] and -3.6% in assay [11].
